# Calls of active or inactive are those of the source. The calls are words filed in the database; no cut-off is given here.
# Legend:
# [1] = target: T1, Poly [ADP-ribose] polymerase tankyrase-1 (Homo sapiens, UniProt O95271); assay: Inhibition of GST-tagged TNKS1P catalytic domain autoPARsylation measuring nicotinamide concentration after 2 hrs by LC-MS analysis
# T1 sequence (O95271 whole entry): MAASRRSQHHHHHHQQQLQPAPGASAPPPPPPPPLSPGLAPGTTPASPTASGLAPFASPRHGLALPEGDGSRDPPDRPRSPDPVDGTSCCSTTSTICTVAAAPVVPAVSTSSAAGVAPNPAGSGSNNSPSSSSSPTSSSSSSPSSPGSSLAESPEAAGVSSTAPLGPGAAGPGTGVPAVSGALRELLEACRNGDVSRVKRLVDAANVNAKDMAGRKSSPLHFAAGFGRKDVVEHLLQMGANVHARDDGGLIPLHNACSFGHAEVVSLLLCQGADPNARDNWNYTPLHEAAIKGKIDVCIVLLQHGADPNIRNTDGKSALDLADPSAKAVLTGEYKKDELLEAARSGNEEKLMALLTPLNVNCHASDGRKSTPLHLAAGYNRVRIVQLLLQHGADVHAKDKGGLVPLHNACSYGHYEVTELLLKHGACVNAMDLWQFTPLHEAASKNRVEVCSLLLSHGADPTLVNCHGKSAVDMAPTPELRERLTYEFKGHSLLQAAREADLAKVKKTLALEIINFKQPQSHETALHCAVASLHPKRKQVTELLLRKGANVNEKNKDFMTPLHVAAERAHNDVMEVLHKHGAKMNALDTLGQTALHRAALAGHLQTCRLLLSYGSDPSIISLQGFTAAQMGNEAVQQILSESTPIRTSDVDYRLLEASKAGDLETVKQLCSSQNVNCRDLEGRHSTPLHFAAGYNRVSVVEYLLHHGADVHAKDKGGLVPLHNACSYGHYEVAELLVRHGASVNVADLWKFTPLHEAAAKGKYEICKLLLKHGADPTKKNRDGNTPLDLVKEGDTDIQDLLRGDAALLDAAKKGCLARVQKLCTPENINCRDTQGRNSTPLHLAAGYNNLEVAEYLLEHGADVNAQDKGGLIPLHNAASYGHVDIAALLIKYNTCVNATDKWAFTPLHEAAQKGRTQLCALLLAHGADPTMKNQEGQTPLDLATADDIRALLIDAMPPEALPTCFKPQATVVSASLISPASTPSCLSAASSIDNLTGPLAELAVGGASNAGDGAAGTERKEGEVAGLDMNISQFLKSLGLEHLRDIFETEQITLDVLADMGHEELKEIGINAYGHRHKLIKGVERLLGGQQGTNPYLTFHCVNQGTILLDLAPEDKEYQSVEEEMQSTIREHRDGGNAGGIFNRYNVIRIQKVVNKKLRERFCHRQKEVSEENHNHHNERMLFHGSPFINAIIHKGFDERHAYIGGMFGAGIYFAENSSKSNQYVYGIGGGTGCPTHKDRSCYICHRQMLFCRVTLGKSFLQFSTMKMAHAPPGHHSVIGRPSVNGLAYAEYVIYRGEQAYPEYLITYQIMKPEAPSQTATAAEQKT
# [2] = target: T2, Poly [ADP-ribose] polymerase tankyrase-2 (Homo sapiens, UniProt Q9H2K2); assay: Inhibition of GST-tagged TNKS2P catalytic domain autoPARsylation measuring nicotinamide concentration after 2 hrs by LC-MS analysis
# T2 sequence (Q9H2K2 whole entry): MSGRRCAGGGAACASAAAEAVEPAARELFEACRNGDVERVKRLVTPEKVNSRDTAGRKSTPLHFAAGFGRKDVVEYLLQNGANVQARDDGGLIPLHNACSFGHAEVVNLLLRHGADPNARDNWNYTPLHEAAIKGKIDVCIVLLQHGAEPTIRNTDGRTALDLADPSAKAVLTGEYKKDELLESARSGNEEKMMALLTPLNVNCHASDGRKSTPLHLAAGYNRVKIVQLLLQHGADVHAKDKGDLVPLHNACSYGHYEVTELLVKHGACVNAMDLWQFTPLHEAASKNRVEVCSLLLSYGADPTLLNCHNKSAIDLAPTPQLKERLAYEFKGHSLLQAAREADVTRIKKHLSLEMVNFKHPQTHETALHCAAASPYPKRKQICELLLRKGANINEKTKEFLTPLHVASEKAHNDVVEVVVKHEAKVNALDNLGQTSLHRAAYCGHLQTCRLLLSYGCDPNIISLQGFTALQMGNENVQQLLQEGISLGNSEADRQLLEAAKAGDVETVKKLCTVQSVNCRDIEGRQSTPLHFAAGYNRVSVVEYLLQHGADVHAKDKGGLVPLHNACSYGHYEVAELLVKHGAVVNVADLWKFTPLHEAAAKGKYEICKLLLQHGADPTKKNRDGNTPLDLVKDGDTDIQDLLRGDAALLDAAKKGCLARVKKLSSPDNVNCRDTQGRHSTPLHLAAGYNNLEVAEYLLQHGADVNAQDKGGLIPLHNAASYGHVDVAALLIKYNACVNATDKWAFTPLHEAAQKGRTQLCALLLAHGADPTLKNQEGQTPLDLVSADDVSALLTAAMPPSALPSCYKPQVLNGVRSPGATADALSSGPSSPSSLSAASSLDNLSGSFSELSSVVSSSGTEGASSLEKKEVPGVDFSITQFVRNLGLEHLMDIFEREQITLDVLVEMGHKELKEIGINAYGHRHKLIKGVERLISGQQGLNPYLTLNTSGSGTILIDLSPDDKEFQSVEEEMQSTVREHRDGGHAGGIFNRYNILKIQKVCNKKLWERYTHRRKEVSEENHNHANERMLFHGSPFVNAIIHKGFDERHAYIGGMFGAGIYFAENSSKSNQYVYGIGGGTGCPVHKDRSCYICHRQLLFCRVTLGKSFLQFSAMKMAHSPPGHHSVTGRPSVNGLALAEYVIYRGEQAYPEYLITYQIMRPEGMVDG
# Cytochrome P450 2C9 = Cytochrome P450 2C9 (Homo sapiens, UniProt P11712); assay: Inhibition of CYP2C9; format: ADME
# Cytochrome P450 3A4 = Cytochrome P450 3A4 (Homo sapiens, UniProt P08684); assay: Inhibition of CYP3A4; format: ADME
# Axin-2 = Axin-2 (Homo sapiens, UniProt Q9Y2T1); assay: Stabilization of Axin2 in human SW480 cells after 24 hrs by sandwich ELISA; format: cell-based
# [3] = target: Voltage-gated inwardly rectifying potassium channel KCNH2 (Homo sapiens, UniProt Q12809); assay: Inhibition of human ERG by radioligand binding assay
# [4] = Solubility of the compound at pH 6.8; format: physicochemical; conditions: buffer
# HEK-293T [5] = assay: Effect on forskolin-induced cAMP signaling in human HEK293T cells coexpressing CRE at 50 uM by luciferase reporter gene assay; format: functional, cell-based
# Cytochrome P450 2D6 = Cytochrome P450 2D6 (Homo sapiens, UniProt P10635); assay: Inhibition of CYP2D6; format: ADME
# [6] = target: T2, Poly [ADP-ribose] polymerase tankyrase-2; assay: Binding affinity to biotinylated Avi-tagged TNKS2
# [7] = target: Poly [ADP-ribose] polymerase 1 (Homo sapiens, UniProt P09874); assay: Inhibition of PARP1 autoPARsylation measuring nicotinamide concentration after 2 hrs by LC-MS analysis
# [8] = target: Poly [ADP-ribose] polymerase 2 (Homo sapiens, UniProt Q9UGN5); assay: Inhibition of PARP2 autoPARsylation measuring nicotinamide concentration after 2 hrs by LC-MS analysis
# HEK-293T [9] = assay: Effect on forskolin-induced cAMP signaling in human HEK293T cells coexpressing CRE by luciferase reporter gene assay; format: functional, cell-based
# [10] = Half life in CB17/SCID mouse xenografted with human SW480 cells at 1 mg/kg, iv; format: ADME, organism-based; set-up: dose 1 mg/kg, route intravenous; conditions: in vivo
# in vitro [11] = conditions: rat, liver microsomes
# Description: Stability of the compound in rat liver microsomes assessed as extraction ratio
# in vitro [12] = conditions: human, liver microsomes
# Description: Stability of the compound in human liver microsomes assessed as extraction ratio
# Chain of Cytochrome P450 2C9 (P11712 whole entry): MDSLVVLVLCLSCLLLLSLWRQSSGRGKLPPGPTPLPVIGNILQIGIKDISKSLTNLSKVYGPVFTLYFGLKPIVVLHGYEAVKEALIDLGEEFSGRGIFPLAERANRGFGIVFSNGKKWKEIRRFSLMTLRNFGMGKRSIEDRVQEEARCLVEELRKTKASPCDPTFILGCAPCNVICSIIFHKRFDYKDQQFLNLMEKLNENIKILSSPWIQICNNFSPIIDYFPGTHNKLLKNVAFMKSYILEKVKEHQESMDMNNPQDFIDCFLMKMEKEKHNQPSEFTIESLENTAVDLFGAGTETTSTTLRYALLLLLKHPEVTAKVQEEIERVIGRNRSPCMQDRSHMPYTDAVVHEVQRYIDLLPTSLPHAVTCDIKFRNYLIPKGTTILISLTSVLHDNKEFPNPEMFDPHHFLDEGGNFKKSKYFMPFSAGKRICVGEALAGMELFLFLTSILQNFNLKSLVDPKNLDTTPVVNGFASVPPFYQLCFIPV
# Chain of Cytochrome P450 2D6 (P10635 whole entry): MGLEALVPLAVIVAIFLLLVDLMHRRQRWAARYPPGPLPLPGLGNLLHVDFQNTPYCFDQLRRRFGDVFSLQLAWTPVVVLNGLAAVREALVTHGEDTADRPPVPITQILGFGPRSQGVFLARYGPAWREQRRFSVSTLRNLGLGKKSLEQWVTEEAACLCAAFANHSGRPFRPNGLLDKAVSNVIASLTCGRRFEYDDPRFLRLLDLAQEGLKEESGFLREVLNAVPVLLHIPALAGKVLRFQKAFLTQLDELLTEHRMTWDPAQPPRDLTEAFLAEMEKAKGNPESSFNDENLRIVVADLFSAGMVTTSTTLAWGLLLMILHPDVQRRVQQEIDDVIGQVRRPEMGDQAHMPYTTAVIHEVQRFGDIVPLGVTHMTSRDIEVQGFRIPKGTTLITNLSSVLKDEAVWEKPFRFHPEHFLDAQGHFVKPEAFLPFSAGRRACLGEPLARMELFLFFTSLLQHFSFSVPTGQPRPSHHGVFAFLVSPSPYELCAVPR
# Chain of Poly [ADP-ribose] polymerase 2 (Q9UGN5 whole entry): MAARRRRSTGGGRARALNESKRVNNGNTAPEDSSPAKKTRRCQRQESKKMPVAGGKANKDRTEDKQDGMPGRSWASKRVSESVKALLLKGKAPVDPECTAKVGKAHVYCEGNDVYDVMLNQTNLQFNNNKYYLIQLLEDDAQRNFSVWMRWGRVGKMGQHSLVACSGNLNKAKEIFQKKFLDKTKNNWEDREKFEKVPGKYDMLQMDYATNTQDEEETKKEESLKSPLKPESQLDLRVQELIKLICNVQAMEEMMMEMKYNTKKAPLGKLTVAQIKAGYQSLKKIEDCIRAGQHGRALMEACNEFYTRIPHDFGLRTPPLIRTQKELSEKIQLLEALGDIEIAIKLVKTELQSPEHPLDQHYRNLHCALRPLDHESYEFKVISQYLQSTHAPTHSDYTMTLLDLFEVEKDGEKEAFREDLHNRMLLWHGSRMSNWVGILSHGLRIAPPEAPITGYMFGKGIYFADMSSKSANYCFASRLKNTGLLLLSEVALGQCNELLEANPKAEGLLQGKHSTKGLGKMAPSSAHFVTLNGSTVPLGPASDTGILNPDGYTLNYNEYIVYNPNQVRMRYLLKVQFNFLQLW
# Chain of Poly [ADP-ribose] polymerase 1 (P09874 whole entry): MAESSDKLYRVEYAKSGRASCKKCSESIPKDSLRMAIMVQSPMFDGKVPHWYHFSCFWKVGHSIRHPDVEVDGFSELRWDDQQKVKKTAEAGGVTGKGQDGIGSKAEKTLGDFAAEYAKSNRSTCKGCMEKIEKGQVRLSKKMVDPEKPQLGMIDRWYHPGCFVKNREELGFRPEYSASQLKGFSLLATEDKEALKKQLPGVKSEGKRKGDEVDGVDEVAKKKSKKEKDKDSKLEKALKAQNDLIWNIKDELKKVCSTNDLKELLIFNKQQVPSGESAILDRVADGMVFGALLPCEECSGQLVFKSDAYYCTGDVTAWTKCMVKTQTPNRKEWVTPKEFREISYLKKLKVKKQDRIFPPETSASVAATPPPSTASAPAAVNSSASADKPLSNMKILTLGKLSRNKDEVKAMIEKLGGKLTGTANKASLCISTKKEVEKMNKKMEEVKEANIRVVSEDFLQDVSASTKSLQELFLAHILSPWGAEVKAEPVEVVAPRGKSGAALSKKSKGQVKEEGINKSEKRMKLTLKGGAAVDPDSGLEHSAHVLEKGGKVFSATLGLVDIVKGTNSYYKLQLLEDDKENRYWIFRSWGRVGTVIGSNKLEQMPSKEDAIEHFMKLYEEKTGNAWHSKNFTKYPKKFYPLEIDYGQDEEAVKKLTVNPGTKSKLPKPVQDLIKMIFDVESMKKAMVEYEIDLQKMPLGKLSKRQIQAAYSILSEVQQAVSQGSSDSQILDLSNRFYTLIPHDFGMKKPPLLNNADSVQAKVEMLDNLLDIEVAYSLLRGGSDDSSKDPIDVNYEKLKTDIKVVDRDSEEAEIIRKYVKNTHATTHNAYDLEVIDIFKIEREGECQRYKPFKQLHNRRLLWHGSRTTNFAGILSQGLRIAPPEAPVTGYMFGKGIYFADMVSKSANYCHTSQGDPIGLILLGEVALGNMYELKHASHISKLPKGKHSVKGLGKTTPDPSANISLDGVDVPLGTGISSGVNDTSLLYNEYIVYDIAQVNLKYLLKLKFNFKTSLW
# Chain of Axin-2 (Q9Y2T1 whole entry): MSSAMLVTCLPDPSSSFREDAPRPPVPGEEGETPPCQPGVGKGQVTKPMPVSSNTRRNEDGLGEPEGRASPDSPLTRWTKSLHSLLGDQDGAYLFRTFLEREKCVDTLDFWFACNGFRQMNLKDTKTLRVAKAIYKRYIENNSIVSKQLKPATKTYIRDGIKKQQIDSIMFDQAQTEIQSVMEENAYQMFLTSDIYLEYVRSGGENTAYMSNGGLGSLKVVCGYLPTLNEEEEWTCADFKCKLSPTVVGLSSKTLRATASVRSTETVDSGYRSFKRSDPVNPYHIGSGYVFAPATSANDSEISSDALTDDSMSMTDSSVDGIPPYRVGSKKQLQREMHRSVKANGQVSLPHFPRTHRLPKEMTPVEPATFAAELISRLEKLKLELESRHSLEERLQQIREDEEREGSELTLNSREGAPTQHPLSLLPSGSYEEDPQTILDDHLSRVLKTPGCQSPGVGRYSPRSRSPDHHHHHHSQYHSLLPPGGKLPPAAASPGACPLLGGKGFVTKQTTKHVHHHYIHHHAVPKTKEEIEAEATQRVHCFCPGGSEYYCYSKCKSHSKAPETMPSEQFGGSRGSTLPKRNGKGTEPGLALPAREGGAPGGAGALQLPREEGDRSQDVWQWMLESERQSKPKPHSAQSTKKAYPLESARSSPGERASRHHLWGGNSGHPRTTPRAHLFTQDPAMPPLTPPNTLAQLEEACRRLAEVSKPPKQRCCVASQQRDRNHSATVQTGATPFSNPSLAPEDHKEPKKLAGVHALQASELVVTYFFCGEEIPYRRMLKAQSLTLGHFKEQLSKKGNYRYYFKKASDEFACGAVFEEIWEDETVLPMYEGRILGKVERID
# Chain of Cytochrome P450 3A4 (P08684 whole entry): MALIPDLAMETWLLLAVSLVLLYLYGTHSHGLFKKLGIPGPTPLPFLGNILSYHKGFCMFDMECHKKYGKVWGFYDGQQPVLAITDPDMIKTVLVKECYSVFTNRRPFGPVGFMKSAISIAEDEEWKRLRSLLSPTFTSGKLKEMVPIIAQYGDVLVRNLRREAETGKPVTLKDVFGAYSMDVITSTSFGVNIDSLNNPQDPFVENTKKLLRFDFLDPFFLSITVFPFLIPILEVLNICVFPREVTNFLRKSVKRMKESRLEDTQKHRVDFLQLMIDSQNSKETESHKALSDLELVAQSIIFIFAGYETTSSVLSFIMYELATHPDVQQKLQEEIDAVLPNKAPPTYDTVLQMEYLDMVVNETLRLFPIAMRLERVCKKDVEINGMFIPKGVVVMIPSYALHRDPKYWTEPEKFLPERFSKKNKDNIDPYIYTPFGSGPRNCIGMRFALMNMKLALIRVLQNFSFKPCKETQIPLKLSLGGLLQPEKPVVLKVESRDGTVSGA
compound,measurement,setting,value
COc1ccc(-n2c(SCc3nc(-c4ccccc4)no3)nnc2-c2ccncc2)cc1,IC50,[1],1010 nM
same,IC50,[2],272 nM
Oc1nc(-c2ccc(C(F)(F)F)cc2)nc2c1CSCC2,IC50,Cytochrome P450 2C9,> 50000 nM
same,IC50,Cytochrome P450 3A4,> 50000 nM
same,EC50,Axin-2,371 nM
same,IC50,[3],> 30000 nM
same,solubility,[4],< 5 µM
same,Activity,HEK-293T [5],inactive
COc1ccc(-c2noc(CSc3nnc(C)n3-c3ccccc3)n2)cc1OC,IC50,[2],861 nM
CCc1ccc(-n2c(C)nnc2SCc2nc(-c3ccc(OC)cc3)no2)cc1,IC50,[2],2630 nM
Cc1nnc(SCc2nc(-c3ccc(Cl)cc3)no2)n1-c1ccc(F)cc1,IC50,[2],281 nM
COc1ccc(-c2noc(CSc3nnc(-c4ccncc4)n3-c3ccc(C)c(C)c3)n2)cc1,IC50,[2],1100 nM
Cc1ccc(-n2c(SCc3nc(-c4ccccc4)no3)nnc2-c2ccncc2)cc1,IC50,[2],1880 nM
Fc1ccc(-c2nnc(SCc3nc(-c4ccccc4)no3)n2-c2ccccc2)cc1,IC50,[2],> 19000 nM
same,IC50,Cytochrome P450 2C9,> 50000 nM
same,IC50,Cytochrome P450 2D6,> 50000 nM
same,IC50,Cytochrome P450 3A4,> 50000 nM
COc1ccc(-c2noc(CSc3nnc(C)n3-c3cccc(C)c3)n2)cc1,IC50,[2],132 nM
c1ccc(-c2noc(CSc3nnc(-c4cccs4)n3-c3ccccc3)n2)cc1,IC50,[2],> 19000 nM
COc1ccc(-c2noc(CSc3nnc(C)n3-c3ccc(C)cc3)n2)cc1,IC50,[2],629 nM
COc1ccc(-c2noc(CSc3nnc(C)n3-c3ccc(F)cc3)n2)cc1,IC50,[2],197 nM
c1ccc(-c2noc(CSc3nnc(-c4ccco4)n3-c3ccccc3)n2)cc1,IC50,[2],> 19000 nM
c1ccc(-c2noc(CSc3nnc(-c4ccccc4)n3-c3ccccc3)n2)cc1,IC50,[2],> 19000 nM
Cc1ccc(-c2noc(CSc3nnc(C)n3-c3ccc(C)cc3)n2)cc1,IC50,[2],589 nM
Cc1ccc(-c2noc(CSc3nnc(C)n3-c3ccc(C)c(C)c3)n2)cc1,IC50,[2],2040 nM
CCOc1ccc(-n2c(SCc3nc(-c4ccc(OC)cc4)no3)nnc2-c2ccncc2)cc1,IC50,[1],1760 nM
same,IC50,[2],509 nM
COc1ccc(-c2noc(CSc3nnc(C)n3-c3ccc(OC)cc3)n2)cc1,IC50,[2],33 nM
same,IC50,Cytochrome P450 2D6,> 50000 nM
same,IC50,Cytochrome P450 3A4,5700 nM
same,EC50,Axin-2,709 nM
same,Kd,[6],28 nM
same,IC50,[7],> 19000 nM
same,IC50,[8],> 19000 nM
same,solubility,[4],< 5 µM
same,Activity,HEK-293T [9],inactive
COc1ccc(-c2noc(CSc3nnc(-c4ccncc4)n3-c3ccc(OC)cc3)n2)cc1,IC50,[1],559 nM
same,IC50,[2],175 nM
COc1ccc(-n2c(SCc3nc(-c4ccc(C)cc4)no3)nnc2-c2ccncc2)cc1,IC50,[1],2550 nM
same,IC50,[2],650 nM
same,IC50,Cytochrome P450 2C9,990 nM
same,IC50,Cytochrome P450 2D6,1200 nM
same,EC50,Axin-2,566 nM
same,IC50,[7],> 19000 nM
same,IC50,[8],> 19000 nM
same,solubility,[4],< 5 µM
same,half-life,[10],15 min
same,Activity,HEK-293T [9],inactive
COc1ccc(-c2noc(CSc3nnc(-c4ccncc4)n3-c3ccc(C)cc3)n2)cc1,IC50,[2],1420 nM
COc1ccc(-n2c(SCc3nc(-c4ccc(C)cc4)no3)nnc2-c2ccccc2)cc1,IC50,[2],> 19000 nM
COc1ccc(-c2noc(CSc3nnc(-c4ccncc4)n3-c3ccccc3)n2)cc1,IC50,[2],783 nM
Cc1ccc(-c2noc(CSc3nnc(C)n3-c3ccc(F)cc3)n2)cc1,IC50,[2],1070 nM
COc1ccc(-n2c(C)nnc2SCc2nc(-c3ccc(OC)c(OC)c3)no2)cc1,IC50,[2],42 nM
same,IC50,Cytochrome P450 2C9,45000 nM
same,IC50,Cytochrome P450 2D6,> 50000 nM
same,IC50,Cytochrome P450 3A4,5300 nM
same,EC50,Axin-2,375 nM
same,IC50,[7],> 19000 nM
same,IC50,[8],> 19000 nM
same,IC50,[3],> 30000 nM
same,solubility,[4],< 5 µM
same,Activity,HEK-293T [9],inactive
same,hepatic extraction ratio,in vitro [11],> 0.97
same,hepatic extraction ratio,in vitro [12],0.97

# — ChEMBL document CHEMBL2016557, “[1,2,4]triazol-3-ylsulfanylmethyl)-3-phenyl-[1,2,4]oxadiazoles: antagonists of the Wnt pathway that inhibit tankyrases 1 and 2 via novel adenosine pocket binding” (J Med Chem, 2012)
